We go through 2 compounds from US9073868B2, “Benzazepine derivatives useful as vasopressin antagonists” (Otsuka Pharmaceutical Co., Ltd., priority 2007, dated 2015).

The nature of data set [1]: Test Example 1: oral absorption in rats, serum concentrations of tolvaptan after oral suspension. In kind it is in vivo. As to conditions: male rats deprived of food about 18 hours, forced oral administration of suspension, 1 mg of tolvaptan per kg, Mean ± S.D. (n = 3 or 4). Here is the method:
The compounds obtained in Examples 1, 50, and 52 were used as test compounds.
Each test compound, (Examples 1, 50, and 52) equivalent to 10 mg of tolvaptan, and hypromellose (125 mg) were suspended in 25 ml of water for injection in a porcelain mortar, to thereby obtain a suspension equivalent to 0.4 mg of tolvaptan per ml of suspension.
A spray-dried tolvaptan powder equivalent to 60 mg of tolvaptan, which was prepared in a similar manner to Example 3 of Japanese Unexamined Patent Publication No. 1999-21241, was suspended in 50 ml of water for injection in a porcelain mortar. This suspension was diluted three-fold with water for injection, preparing a suspension of spray-dried powder equivalent to 0.4 mg of tolvaptan per ml of suspension.
The following tests were conducted to examine the oral absorption features of each suspension. Male rats (body weight: about 180 g) that had been deprived of food for about 18 hours were used as test animals. The above suspensions were each administered by forced oral administration using a sonde for oral administration at a dose of 2.5 ml/kg of body weight, producing 1 mg of tolvaptan per kg of body weight. The blood samples were collected from the jugular vein under light diethyl ether anesthesia at the time of 0.5 hour, 1 hour, 2 hours, 4 hours, 6 hours, and 8 hours later after dosing. The serum concentrations of tolvaptan (ng/ml) were determined by using UPLC-MS/MS (Waters).
The average phaLmacokinetic parameters were calculated from the results.

The nature of data set [2]: Test Example 2: oral absorption in rats, serum concentrations of tolvaptan after oral solution or suspension. In kind it is in vivo. As to conditions: rat, male rats fasted about 18 hours, forced oral administration of suspension or solution, 1 mg of tolvaptan per kg, Mean ± S.D. (n = 4). The method, then: The compounds obtained in Examples 74 was used as test compounds.
The test compound, (Examples 1) equivalent to 10 mg of tolvaptan, and hydroxypropylcellulose (5 mg) was dissolved in 25 ml of water for injection in a porcelain mortar, to thereby obtain a solution equivalent to 0.4 mg of tolvaptan per ml.
A spray-dried tolvaptan powder equivalent to 10 mg of tolvaptan was suspended in 25 ml of water for injection in a porcelain mortar, to obtain a suspension of spray-dried powder equivalent to 0.4 mg of tolvaptan per ml of suspension.
The following tests were conducted to examine the oral absorption features of each suspension and solution. Male rats (body weight: about 160 g) that had been fasted for about 18 hours were used as test animals. The above suspension or solution were each administered by forced oral administration using a sonde for oral administration at a dose of 2.5 ml/kg of body weight, producing 1 mg of tolvaptan per kg of body weight. The blood samples were collected from the jugular vein under light diethyl ether anesthesia at the time of 0.5 hour, 1 hour, 2 hours, 3 hours, 4 hours, 6 hours, 8 hours and 10 hours later after dosing. The serum concentrations of tolvaptan (ng/ml) were determined by using UPLC-MS/MS (Waters).
The average pharmacokinetic parameters were calculated from the results.

In general, Cmax refers to the maximum level reached in the sampled fluid or tissue. By Tmax is commonly meant the time from dosing to the highest level. On to `Cc1ccccc1C(=O)Nc1ccc(C(=O)N2CCCC(OC(=O)CCC(=O)O)c3cc(Cl)ccc32)c(C)c1` (stereo not drawn) [Example 1, {7-Chloro-1-[2-methyl-4-(2-methyl-benzoylamino)-benzoyl]-2,3,4,5-tetrahydro-1H-benzo[b]azepin-5-yl} Succinate], for which, in data set [1], the “AUC∞” value was found to be 96.1 ± 18.1 ng·h/mL, the Cmax is on record as 16.2 ± 4.8 ng/mL, the “MRT∞” value worked out at 4.45 ± 0.64 h and the Tmax came out at 2.00 ± 0.00 h.

Usually AUC(0-inf) stands for total exposure, with the tail of the curve extrapolated. For orientation: MRT inf means the average time that molecules of a dose stay in the body. For `Cc1ccccc1C(=O)Nc1ccc(C(=O)N2CCCC(O)c3cc(Cl)ccc32)c(C)c1` (stereo not drawn) [Tolvaptan], in data set [1] (rat), the AUC(0-inf) worked out at 80.9 ± 28.5 ng·h/mL and the MRT inf came to 2.95 ± 0.35 h. In addition, in data set [1] (rat, read-out: Cmax), the Cmax stood at 26.4 ± 12.9 ng/mL. For the same compound, the time to peak (Tmax) in data set [1] (rat, read-out: Tmax) was determined as 1.5 ± 0.58 h. In data set [2], the AUC(0-inf) was found to be 92.4 ± 27 ng·h/mL, the Cmax was 26.9 ± 11.6 ng/mL, the MRT inf was 2.96 ± 0.47 h and the Tmax was determined as 1 h.
